Test results published in the NIST ThermoML archive (doi:10.1021/je400004j).
Numbers after ± are expanded uncertainties.

Assay: xn = mol fraction of the nth substance listed
Conditions: 298.15 K, Ring tensiometer, x1 = 0.02

| Compound | surface tension liquid-gas |
| --- | --- |
| COP(=O)([O-])OC.Cn1cc[n+](C)c1 [1,3-dimethylimidazolium dimethylphosphate] + O | 67 ± 0.9 mN/m |
| CCCCn1cc[n+](CC)c1.CCOP(=O)([O-])OCC [1-butyl-3-ethyl-1H-imidazol-3-ium diethyl phosphate] + O | 47.4 ± 1.6 mN/m |

Same assay, conditions: 298.15 K, Ring tensiometer, x1 = 0.04

| Compound | surface tension liquid-gas |
| --- | --- |
| COP(=O)([O-])OC.Cn1cc[n+](C)c1 [1,3-dimethylimidazolium dimethylphosphate] + O | 64.2 ± 0.9 mN/m |
| CCCCn1cc[n+](CC)c1.CCOP(=O)([O-])OCC [1-butyl-3-ethyl-1H-imidazol-3-ium diethyl phosphate] + O | 42.4 ± 0.6 mN/m |

Same assay, conditions: 298.15 K, Ring tensiometer, x1 = 0.08

| Compound | surface tension liquid-gas |
| --- | --- |
| COP(=O)([O-])OC.Cn1cc[n+](C)c1 [1,3-dimethylimidazolium dimethylphosphate] + O | 59.5 ± 0.8 mN/m |
| CCCCn1cc[n+](CC)c1.CCOP(=O)([O-])OCC [1-butyl-3-ethyl-1H-imidazol-3-ium diethyl phosphate] + O | 37.8 ± 0.6 mN/m |

Same assay, conditions: 298.15 K, Ring tensiometer, x1 = 0.1

| Compound | surface tension liquid-gas |
| --- | --- |
| CCOP(=O)([O-])OCC.CCn1cc[n+](CC)c1 [1,3-diethyl-1H-imidazol-3-ium diethyl phosphate] + CCO | 22.6 ± 0.3 mN/m |
| CCOP(=O)([O-])OCC.CCn1cc[n+](CC)c1 [1,3-diethyl-1H-imidazol-3-ium diethyl phosphate] + CO | 26.4 ± 0.4 mN/m |
| CCOP(=O)([O-])OCC.CCn1cc[n+](CC)c1 [1,3-diethyl-1H-imidazol-3-ium diethyl phosphate] + O | 40.7 ± 0.7 mN/m |
| COP(=O)([O-])OC.Cn1cc[n+](C)c1 [1,3-dimethylimidazolium dimethylphosphate] + CCO | 23.2 ± 0.4 mN/m |
| COP(=O)([O-])OC.Cn1cc[n+](C)c1 [1,3-dimethylimidazolium dimethylphosphate] + CO | 26.9 ± 0.4 mN/m |
| COP(=O)([O-])OC.Cn1cc[n+](C)c1 [1,3-dimethylimidazolium dimethylphosphate] + O | 55.7 ± 0.8 mN/m |
| CCCCn1cc[n+](CC)c1.CCOP(=O)([O-])OCC [1-butyl-3-ethyl-1H-imidazol-3-ium diethyl phosphate] + CCO | 22.6 ± 0.3 mN/m |
| CCCCn1cc[n+](CC)c1.CCOP(=O)([O-])OCC [1-butyl-3-ethyl-1H-imidazol-3-ium diethyl phosphate] + CO | 26.1 ± 0.4 mN/m |
| CCCCn1cc[n+](CC)c1.CCOP(=O)([O-])OCC [1-butyl-3-ethyl-1H-imidazol-3-ium diethyl phosphate] + O | 35.9 ± 0.5 mN/m |
| CCCCn1cc[n+](C)c1.COP(=O)([O-])OC [1-butyl-3-methyl-1H-imidazolium dimethylphosphate] + CCO | 22.8 ± 0.3 mN/m |
| CCCCn1cc[n+](C)c1.COP(=O)([O-])OC [1-butyl-3-methyl-1H-imidazolium dimethylphosphate] + CO | 26.5 ± 0.4 mN/m |

Same assay, conditions: 298.15 K, Ring tensiometer, x1 = 0.12

| Compound | surface tension liquid-gas |
| --- | --- |
| COP(=O)([O-])OC.Cn1cc[n+](C)c1 [1,3-dimethylimidazolium dimethylphosphate] + O | 53.6 ± 0.7 mN/m |
| CCCCn1cc[n+](CC)c1.CCOP(=O)([O-])OCC [1-butyl-3-ethyl-1H-imidazol-3-ium diethyl phosphate] + O | 35.5 ± 0.5 mN/m |

Same assay, conditions: 298.15 K, Ring tensiometer, x1 = 0.14

| Compound | surface tension liquid-gas |
| --- | --- |
| COP(=O)([O-])OC.Cn1cc[n+](C)c1 [1,3-dimethylimidazolium dimethylphosphate] + O | 52.2 ± 0.7 mN/m |
| CCCCn1cc[n+](CC)c1.CCOP(=O)([O-])OCC [1-butyl-3-ethyl-1H-imidazol-3-ium diethyl phosphate] + O | 35 ± 0.5 mN/m |

Same assay, conditions: 298.15 K, Ring tensiometer, x1 = 0.2

| Compound | surface tension liquid-gas |
| --- | --- |
| CCOP(=O)([O-])OCC.CCn1cc[n+](CC)c1 [1,3-diethyl-1H-imidazol-3-ium diethyl phosphate] + CCO | 23.4 ± 0.4 mN/m |
| CCOP(=O)([O-])OCC.CCn1cc[n+](CC)c1 [1,3-diethyl-1H-imidazol-3-ium diethyl phosphate] + CO | 28.6 ± 0.4 mN/m |
| CCOP(=O)([O-])OCC.CCn1cc[n+](CC)c1 [1,3-diethyl-1H-imidazol-3-ium diethyl phosphate] + O | 37.4 ± 0.5 mN/m |
| COP(=O)([O-])OC.Cn1cc[n+](C)c1 [1,3-dimethylimidazolium dimethylphosphate] + CCO | 24.5 ± 0.4 mN/m |
| COP(=O)([O-])OC.Cn1cc[n+](C)c1 [1,3-dimethylimidazolium dimethylphosphate] + CO | 30.4 ± 0.4 mN/m |
| COP(=O)([O-])OC.Cn1cc[n+](C)c1 [1,3-dimethylimidazolium dimethylphosphate] + O | 51.8 ± 0.7 mN/m |
| CCCCn1cc[n+](CC)c1.CCOP(=O)([O-])OCC [1-butyl-3-ethyl-1H-imidazol-3-ium diethyl phosphate] + CCO | 23.6 ± 0.4 mN/m |
| CCCCn1cc[n+](CC)c1.CCOP(=O)([O-])OCC [1-butyl-3-ethyl-1H-imidazol-3-ium diethyl phosphate] + CO | 28.4 ± 0.4 mN/m |
| CCCCn1cc[n+](CC)c1.CCOP(=O)([O-])OCC [1-butyl-3-ethyl-1H-imidazol-3-ium diethyl phosphate] + O | 33.1 ± 0.5 mN/m |
| CCCCn1cc[n+](C)c1.COP(=O)([O-])OC [1-butyl-3-methyl-1H-imidazolium dimethylphosphate] + CCO | 23.6 ± 0.4 mN/m |
| CCCCn1cc[n+](C)c1.COP(=O)([O-])OC [1-butyl-3-methyl-1H-imidazolium dimethylphosphate] + CO | 29.2 ± 0.4 mN/m |

Same assay, conditions: 298.15 K, Ring tensiometer, x1 = 0.3

| Compound | surface tension liquid-gas |
| --- | --- |
| CCOP(=O)([O-])OCC.CCn1cc[n+](CC)c1 [1,3-diethyl-1H-imidazol-3-ium diethyl phosphate] + CCO | 24.6 ± 0.4 mN/m |
| CCOP(=O)([O-])OCC.CCn1cc[n+](CC)c1 [1,3-diethyl-1H-imidazol-3-ium diethyl phosphate] + CO | 30.3 ± 0.4 mN/m |
| CCOP(=O)([O-])OCC.CCn1cc[n+](CC)c1 [1,3-diethyl-1H-imidazol-3-ium diethyl phosphate] + O | 37.2 ± 0.5 mN/m |
| COP(=O)([O-])OC.Cn1cc[n+](C)c1 [1,3-dimethylimidazolium dimethylphosphate] + CCO | 26.1 ± 0.4 mN/m |
| COP(=O)([O-])OC.Cn1cc[n+](C)c1 [1,3-dimethylimidazolium dimethylphosphate] + CO | 33.1 ± 0.5 mN/m |
| COP(=O)([O-])OC.Cn1cc[n+](C)c1 [1,3-dimethylimidazolium dimethylphosphate] + O | 50.6 ± 0.7 mN/m |
| CCCCn1cc[n+](CC)c1.CCOP(=O)([O-])OCC [1-butyl-3-ethyl-1H-imidazol-3-ium diethyl phosphate] + CCO | 24.7 ± 0.4 mN/m |
| CCCCn1cc[n+](CC)c1.CCOP(=O)([O-])OCC [1-butyl-3-ethyl-1H-imidazol-3-ium diethyl phosphate] + CO | 29.8 ± 0.4 mN/m |
| CCCCn1cc[n+](CC)c1.CCOP(=O)([O-])OCC [1-butyl-3-ethyl-1H-imidazol-3-ium diethyl phosphate] + O | 32.9 ± 0.5 mN/m |
| CCCCn1cc[n+](C)c1.COP(=O)([O-])OC [1-butyl-3-methyl-1H-imidazolium dimethylphosphate] + CCO | 25 ± 0.4 mN/m |
| CCCCn1cc[n+](C)c1.COP(=O)([O-])OC [1-butyl-3-methyl-1H-imidazolium dimethylphosphate] + CO | 30.8 ± 0.4 mN/m |

Same assay, conditions: 298.15 K, Ring tensiometer, x1 = 0.4

| Compound | surface tension liquid-gas |
| --- | --- |
| CCOP(=O)([O-])OCC.CCn1cc[n+](CC)c1 [1,3-diethyl-1H-imidazol-3-ium diethyl phosphate] + CCO | 26.3 ± 0.4 mN/m |
| CCOP(=O)([O-])OCC.CCn1cc[n+](CC)c1 [1,3-diethyl-1H-imidazol-3-ium diethyl phosphate] + CO | 31.6 ± 0.5 mN/m |
| CCOP(=O)([O-])OCC.CCn1cc[n+](CC)c1 [1,3-diethyl-1H-imidazol-3-ium diethyl phosphate] + O | 36.6 ± 0.5 mN/m |
| COP(=O)([O-])OC.Cn1cc[n+](C)c1 [1,3-dimethylimidazolium dimethylphosphate] + CCO | 28.2 ± 0.4 mN/m |
| COP(=O)([O-])OC.Cn1cc[n+](C)c1 [1,3-dimethylimidazolium dimethylphosphate] + CO | 35.7 ± 0.5 mN/m |
| COP(=O)([O-])OC.Cn1cc[n+](C)c1 [1,3-dimethylimidazolium dimethylphosphate] + O | 50 ± 0.7 mN/m |
| CCCCn1cc[n+](CC)c1.CCOP(=O)([O-])OCC [1-butyl-3-ethyl-1H-imidazol-3-ium diethyl phosphate] + CCO | 26.1 ± 0.4 mN/m |
| CCCCn1cc[n+](CC)c1.CCOP(=O)([O-])OCC [1-butyl-3-ethyl-1H-imidazol-3-ium diethyl phosphate] + CO | 30.6 ± 0.4 mN/m |
| CCCCn1cc[n+](CC)c1.CCOP(=O)([O-])OCC [1-butyl-3-ethyl-1H-imidazol-3-ium diethyl phosphate] + O | 32.8 ± 0.5 mN/m |
| CCCCn1cc[n+](C)c1.COP(=O)([O-])OC [1-butyl-3-methyl-1H-imidazolium dimethylphosphate] + CCO | 26.9 ± 0.4 mN/m |
| CCCCn1cc[n+](C)c1.COP(=O)([O-])OC [1-butyl-3-methyl-1H-imidazolium dimethylphosphate] + CO | 32.3 ± 0.5 mN/m |

Same assay, conditions: 298.15 K, Ring tensiometer, x1 = 0.5

| Compound | surface tension liquid-gas |
| --- | --- |
| CCOP(=O)([O-])OCC.CCn1cc[n+](CC)c1 [1,3-diethyl-1H-imidazol-3-ium diethyl phosphate] + CCO | 27.8 ± 0.4 mN/m |
| CCOP(=O)([O-])OCC.CCn1cc[n+](CC)c1 [1,3-diethyl-1H-imidazol-3-ium diethyl phosphate] + CO | 33 ± 0.5 mN/m |
| CCOP(=O)([O-])OCC.CCn1cc[n+](CC)c1 [1,3-diethyl-1H-imidazol-3-ium diethyl phosphate] + O | 36.4 ± 0.5 mN/m |
| COP(=O)([O-])OC.Cn1cc[n+](C)c1 [1,3-dimethylimidazolium dimethylphosphate] + CCO | 30.5 ± 0.4 mN/m |
| COP(=O)([O-])OC.Cn1cc[n+](C)c1 [1,3-dimethylimidazolium dimethylphosphate] + CO | 38.1 ± 0.5 mN/m |
| COP(=O)([O-])OC.Cn1cc[n+](C)c1 [1,3-dimethylimidazolium dimethylphosphate] + O | 49.8 ± 0.7 mN/m |
